This note sets out measurements from PubChem BioAssay (NCI).

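Assay format: 96-well plates, 48-hour exposure. GI50 is the concentration that inhibits growth by half. TGI: total growth inhibition.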

Test systems include A498 renal; A549 NSCLC; BT-549 breast; HOP-62 NSCLC; HS 578T breast; KM12 colon; SF-268 CNS; SW-620 colon; UACC-257 melanoma; SR leukemia.
What all share (assay): inhibition of tumour cell growth, NCI panel, 48 h

As for `O=c1c2ccccc2c(Br)c(Br)c2ccccc12`, the GI50 in the experiment on A498 renal was 5.37 µM; in the experiment on A549 NSCLC, 20.6 µM; in the experiment with BT-549 breast, 19 µM; in the experiment on HOP-62 NSCLC it was 21 µM; in the experiment with HS 578T breast, 11.8 µM; in the experiment with KM12 colon it was 12.5 µM. For the same compound, the GI50 in the experiment with SF-268 CNS was 8.89 µM; in the experiment with SW-620 colon, 1.09 µM; in the experiment with UACC-257 melanoma, 7.48 µM. Also, the TGI was found to be 23 µM in the experiment with A498 renal; 73 µM in the experiment on A549 NSCLC; 34.4 µM in the experiment with BT-549 breast; 41.9 µM in the experiment on HOP-62 NSCLC; 42.1 µM in the experiment on HS 578T breast; 29.6 µM in the experiment on KM12 colon. Besides, the TGI in the experiment with SF-268 CNS was found to be 25 µM; in the experiment on SW-620 colon, 3.13 µM; with UACC-257 melanoma it was 43.6 µM.
On to `COc1ccc(-n2cc(-c3cc(OC)c(OC)c(OC)c3)nc2SCc2ccccc2)cc1`, for which the GI50 in the experiment on A498 renal was more than 100 µM; in the experiment on A549 NSCLC, 79.6 µM; in the experiment on HOP-62 NSCLC, 78 µM; in the experiment on HS 578T breast, more than 100 µM; in the experiment with KM12 colon it was 60 µM; in the experiment on SF-268 CNS, more than 100 µM. Besides, the GI50 with SR leukemia is 54 µM; in the experiment with SW-620 colon it was more than 100 µM. For the same compound, the TGI in the experiment with A498 renal, in the experiment on A549 NSCLC, with HOP-62 NSCLC, in the experiment with HS 578T breast, in the experiment on KM12 colon and with SF-268 CNS was more than 100 µM throughout. Further, the TGI in the experiment with SR leukemia and in the experiment with SW-620 colon was more than 100 µM each time.
Take `CC[O-].CC[O-].O=C([CH-]C(=O)c1cccnc1)c1ccccc1.O=C([CH-]C(=O)c1cccnc1)c1ccccc1.[Ti+4]`: the GI50 is more than 100 µM with A498 renal; more than 100 µM in the experiment with A549 NSCLC; 48.4 µM in the experiment on HOP-62 NSCLC; 32.7 µM in the experiment with KM12 colon; 88.3 µM in the experiment with SF-268 CNS; 25.5 µM in the experiment on SR leukemia. Moreover, the GI50 in the experiment with SW-620 colon was 96.8 µM; with UACC-257 melanoma, 52.2 µM. Also, the TGI in the experiment with A498 renal, with A549 NSCLC, with HOP-62 NSCLC, in the experiment with KM12 colon, with SF-268 CNS and in the experiment on SR leukemia was more than 100 µM in each case. Also, the TGI in the experiment on SW-620 colon and with UACC-257 melanoma was more than 100 µM throughout.
Turning to `O=C(Nc1ccccc1)c1nn(-c2cc(S(=O)(=O)O)c([N+](=O)[O-])cc2Cl)[n+](-c2cc(S(=O)(=O)[O-])c([N+](=O)[O-])cc2Cl)n1`, the TGI with A549 NSCLC, in the experiment with HOP-62 NSCLC, in the experiment on HS 578T breast, in the experiment on KM12 colon, in the experiment on SF-268 CNS and in the experiment on SR leukemia was more than 100 µM in each case. The TGI with SW-620 colon and in the experiment with UACC-257 melanoma was more than 100 µM in each case.
Turning to `O=c1cc(-c2ccccc2)oc2cc(O)c(O)c(O)c12`, the GI50 was 6.94 µM in the experiment on A498 renal; 36.2 µM in the experiment with A549 NSCLC; 13.6 µM with BT-549 breast; 9.49 µM in the experiment with HOP-62 NSCLC; 18.2 µM in the experiment on KM12 colon; 4.55 µM in the experiment with SF-268 CNS. Also, the GI50 in the experiment on SW-620 colon is 17.8 µM; in the experiment with UACC-257 melanoma, 39 µM. Besides, the TGI is more than 100 µM in the experiment on A498 renal; more than 100 µM with A549 NSCLC; 87.5 µM with BT-549 breast; 31.2 µM with HOP-62 NSCLC; 62.5 µM in the experiment with KM12 colon; 29.6 µM in the experiment with SF-268 CNS. The TGI in the experiment on SW-620 colon and with UACC-257 melanoma was more than 100 µM each time.
For the compound `O=S(=O)(N/N=C/c1ccc(Cl)c(Cl)c1)c1ccccc1`, the TGI with A498 renal was 92.5 µM; with A549 NSCLC it was more than 100 µM; with HOP-62 NSCLC it was more than 100 µM; in the experiment with KM12 colon it was more than 100 µM; in the experiment on SF-268 CNS it was more than 100 µM; in the experiment with SR leukemia, more than 100 µM. Besides, the TGI in the experiment with SW-620 colon and in the experiment on UACC-257 melanoma was more than 100 µM throughout.
For the compound `COc1cc2c3c(n(CCCN(CCN)CCCn4c5c(c6cc(OC)c(OC)cc6c4=O)C(=O)c4cc6c(cc4-5)OCO6)c(=O)c2cc1OC)-c1cc2c(cc1C3=O)OCO2`, the GI50 in the experiment on A498 renal was 6.71 µM; in the experiment with A549 NSCLC, 2.72 µM; with BT-549 breast, 5.08 µM; in the experiment on HOP-62 NSCLC it was 0.33 µM; in the experiment on HS 578T breast, 12.6 µM; in the experiment on KM12 colon, 4.04 µM. The values for the GI50 in the experiment with SF-268 CNS, with SW-620 colon and in the experiment on UACC-257 melanoma were 0.794 µM, 0.719 µM and 11.6 µM, respectively. The TGI with A498 renal was 25.7 µM; with A549 NSCLC, more than 100 µM; in the experiment on BT-549 breast, more than 79.3 µM; in the experiment with HOP-62 NSCLC it was 1.64 µM; in the experiment on HS 578T breast, more than 100 µM; with KM12 colon, more than 37 µM. Also, the TGI with SF-268 CNS was more than 29.3 µM; with SW-620 colon it was more than 70.7 µM; in the experiment on UACC-257 melanoma it was more than 89.1 µM.
For the compound `C/C=C/C1=C(Cl)C(=O)[C@@H](Cl)[C@@]1(O)C(=O)OC`, the TGI is 14.3 µM with A498 renal; 24.3 µM in the experiment on A549 NSCLC; 2.42 µM in the experiment with HOP-62 NSCLC; 22.2 µM in the experiment on KM12 colon; 24.2 µM with SF-268 CNS; 21.7 µM in the experiment on SR leukemia. In addition, the TGI in the experiment on SW-620 colon worked out at 3.1 µM; in the experiment on UACC-257 melanoma it was 3.5 µM.
Regarding `Nc1ncnc2c1ncn2Cc1ccc(C23CC4CC(CC(C4)C2)C3)c(OCc2cc(F)c(F)cc2F)c1`, the GI50 in the experiment with A498 renal is more than 100 µM; in the experiment on A549 NSCLC it was 3.61 µM; in the experiment on BT-549 breast, more than 100 µM; in the experiment with HOP-62 NSCLC it was 6.98 µM; with HS 578T breast, 52 µM; in the experiment on KM12 colon it was 3.92 µM. Also, the GI50 was 8.57 µM with SF-268 CNS, 7.25 µM in the experiment with SW-620 colon and 2.33 µM with UACC-257 melanoma. The TGI is more than 100 µM with A498 renal; 14.7 µM in the experiment on A549 NSCLC; more than 100 µM in the experiment with BT-549 breast; 18.9 µM with HOP-62 NSCLC; more than 100 µM with HS 578T breast; more than 100 µM in the experiment on KM12 colon. For the same compound, the TGI in the experiment on SF-268 CNS was more than 100 µM; with SW-620 colon it was more than 100 µM; with UACC-257 melanoma, 7.4 µM.
For `CN(C)CCN(C)CC1COC(C)(C)O1` (centres undefined), the TGI in the experiment on A498 renal, in the experiment on A549 NSCLC, in the experiment on HOP-62 NSCLC, in the experiment on KM12 colon, with SF-268 CNS and with SR leukemia was more than 100 µM throughout. The TGI with SW-620 colon and with UACC-257 melanoma was more than 100 µM throughout.
